From patent US12629408B2, “Peptides with anti-tumor activity” (UNIVERSITA' DEGLI STUDI DI PADOVA, priority 2019, dated 2026)
Where two headings read alike, the source gives them in different places. Square brackets hold non-standard residues; d marks the D form. Ends that are not written are not given here. Ahx = NCCCCCC(=O)O; βAla = NCCC(=O)O

Key:
non-tumor tissues [1] = test: Autopsy and histological evaluation of internal organs of treated mice
Text: (§2) At the end of each experiment shown in FIGS. 2, 3 and 4, and described in Example 2, male and female Balb/c mice underwent a complete autopsy with the assistance of an anatomopathologist expert. […] The group of mice not receiving any peptide treatment (NaCl) acts as an additional control.
(§3) List of organs or tissues analyzed: heart, skeletal muscle, kidney, spleen, lung, liver, brain, intestine, pancreas, bone marrow, lymph nodes, thyroid gland, parathyroid glands, and adrenal glands.

non-tumor tissues [2] = conditions: mouse, in vivo
Text: as §2, §3

[3] = tested on: murine breast cancer cell line 4T1; test: In vivo breast cancer, 4T1 subcutaneous tumor, intraperitoneal injections (FIG. 4); design: species or system mice; conditions: 4T1, intraperitoneal, 60 nmoles every 12 hours up to 60 hours
Experimental: In this experiment (FIG. 4), 200,000 murine breast cancer cell line 4T1 were injected subcutaneously into female mice. At 9 days post-inoculation of the cells, the mice were divided into two experimental groups and 60 nmoles of peptides (ACPP-HK2 or ACPP-SCR) dissolved in 500 μl of saline solution were injected intraperitoneally. The injections followed one the other every 12 hours up to 60 hours and at 72 hours the experiment ended.

[4] = tested on: murine colon carcinoma line CT26; test: In vivo colon cancer, CT26 subcutaneous tumor, intraperitoneal injections (FIGS. 2, 3); design: species or system Balb/c mice
Experimental: (§1) 100,000 tumor cells from the murine colon carcinoma line CT26 were injected subcutaneously (in the right flank) to male Balb/c mice. The transplanted cells give rise to a subcutaneous tumor clearly visible from the outside in just over a week. Using this in vivo tumorigenesis procedure, we conducted three different experiments (described below) whose results are represented in FIGS. 1, 2 and 3.
Administration was performed every 12 hours by means of intraperitoneal injections of 500 μl each containing 30 nmoles of peptide (ACPP-HK2 or ACPP-SCR). […] Every 48 hours the size of the tumors was measured externally, and their volumes calculated.
In this experiment, a double dose of peptides (60 nmoles/injection) was administered compared to the second experiment, again by intraperitoneal injection.

[5] = tested on: HeLa cervical cancer cell line; test: Cell viability after treatment with ACPP-HK2 sequence variants; assay type: cell-based, human; conditions: between 5 and 50 μM, 18 or 36 hours
Text: FIGS. 9A and 9B report cell viability after treatment of tumor cells (HeLa cervical cancer cell line) at various concentrations and times with the peptides ACPP-HK2 (SEQ ID NO:1), ACPP-HK2 II (SEQ ID) NO: 8), ACPP-HK2 III (SEQ ID NO: 9) and ACPP-HK2 IV (SEQ ID NO:10).

[6] = tested on: murine colon carcinoma line CT26; test: In vivo colon cancer, CT26 subcutaneous tumor, injection into the tumors (FIG. 1); design: species or system Balb/c mice
Experimental: as §1
At 8 days post-cell inoculation, the mice were divided into three groups (FIG. 1) and saline boluses (NaCl) without any other solute, or containing the active form of ACPP-HK2 resulting from the proteolytic cut (pepHK2, 2 nmol/injection), or finally containing the entire ACPP-HK2 (2 nmol/injection) were injected into the tumors. Each bolus consisted of 20 μl solution and was injected every 12 hours up to 60 hours. 72 hours after the start of the treatment, the mice were sacrificed, and the tumor volume was measured.

With “MIASHLLAYFFTELN βA RRRRRRRRR PLGLAG Ahx EEEEEEEE (MIASHLLAYFFTELN[βAla]RRRRRRRRRPLGLAG[Ahx]EEEEEEEE) [ACPP-HK2]” the “toxic side effect for non-tumor tissues and the whole organism” value (non-tumor tissues [1]; expert's conclusion after autopsy and histology) was “no toxic side effect”, the “histological characteristics of formalin-fixed sections of internal organs” value (non-tumor tissues [2]) was “without finding any differences among different experimental groups (ACPP-SCR and ACPP-HK2) or any tissue alterations” and the tumor growth [3] was “almost blocked”. For the same substance, the “tumor volume vs ACPP-SCR control” value ([3]; end at 72 hours) was “significantly smaller in volume than control tumors injected with ACPP-SCR”, the “tumor volume vs ACPP-SCR control” value ([4]; 30 nmoles every 12 hours, after 48 and 96 hours) was “significantly smaller in volume than the control tumors injected with ACPP-SCR” and the tumor growth ([4]; 60 nmoles/injection every twelve hours up to the sixtieth hour) was “strongly reduces, up to almost blocking, tumor growth”. The cell viability [5] was “able to decrease cell viability of cancer cells”, the “tumor growth (tumor volume)” value ([6]; 2 nmol/injection into the tumors every 12 hours up to 60 hours, measured at 72 hours, vs saline) was “reduce tumor growth” and the “efficacy on tumor growth, ACPP-HK2 compared with pepHK2” value ([6]; 2 nmol/injection into the tumors, 72 hours) was “more effective”.
In the case of “SHLLAYFFTELN-GRKKRRQRRRG-PLGLAG-Ahx-EEEEEEEE (SHLLAYFFTELNGRKKRRQRRRGPLGLAG[Ahx]EEEEEEEE) [ACPP-HK2 III, variant ACPP-HK2 III of the peptide ACPP-HK2, 38-amino acid peptide]”, the cell viability [5] is reported as “able to decrease cell viability of cancer cells”.
With “SHLLAYFFTELN-RRRRRRRRR-PLGLAG-Ahx-EEEEEEEE (SHLLAYFFTELNRRRRRRRRRPLGLAG[Ahx]EEEEEEEE) [ACPP-HK2 II, variant ACPP-HK2 II of the peptide ACPP-HK2, 36-amino acid peptide]” the cell viability [5] was “able to decrease cell viability of cancer cells”.
“SHLLAYFFTELNHD-RRRRRRRRR-PLGLAG-Ahx-EEEEEEEE (SHLLAYFFTELNHDRRRRRRRRRPLGLAG[Ahx]EEEEEEEE) [ACPP-HK2 IV, variant ACPP-HK2 IV of the peptide ACPP-HK2, 38-amino acid peptide]” was tested, and the cell viability [5] was “able to decrease cell viability of cancer cells”.
For “VGAHAGEYGAEALER βA RRRRRRRRR PLGLAG Ahx EEEEEEEE (VGAHAGEYGAEALER[βAla]RRRRRRRRRPLGLAG[Ahx]EEEEEEEE) [ACPP-SCR, reference compound]”, the “histological characteristics of formalin-fixed sections of internal organs” value (non-tumor tissues [1]; mice of the experiments of FIGS. 2, 3 and 4, heart, skeletal muscle, kidney, spleen, lung, liver, brain and others) was “without finding any differences among different experimental groups (ACPP-SCR and ACPP-HK2) or any tissue alterations”.
